From the Kinase Knowledgebase extract (Sharma et al. 2016)

Legend:
MAPK14 (human) [1] = target: MAPK14 (human) (UniProt Q16539); assay: Inhibition of MAPK14 Kinase Activity by PHAS-I Assay; conditions: for inhibition: concentration not given here
MAPK14 (human) [2] = target: MAPK14 (human) (UniProt Q16539); assay: Inhibition of LPS Stimulated TNF Production by U937 Cells

Sequence of MAPK14 (human) (Q16539 whole entry, looked up): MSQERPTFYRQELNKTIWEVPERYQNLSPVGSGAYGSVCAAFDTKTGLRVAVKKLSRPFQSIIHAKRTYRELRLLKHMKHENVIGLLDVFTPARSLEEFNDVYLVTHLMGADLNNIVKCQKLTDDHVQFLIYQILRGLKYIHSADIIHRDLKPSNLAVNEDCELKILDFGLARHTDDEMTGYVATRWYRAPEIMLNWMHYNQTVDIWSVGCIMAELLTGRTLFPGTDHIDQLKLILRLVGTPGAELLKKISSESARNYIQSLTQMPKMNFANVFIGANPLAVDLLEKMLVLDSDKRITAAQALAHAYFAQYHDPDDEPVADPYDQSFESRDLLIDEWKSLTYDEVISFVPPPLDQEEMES

| Compound | inhibition (MAPK14 (human) [2]; concentration not given here) | inhibition (MAPK14 (human) [1]) | also measured |
| --- | --- | --- | --- |
| O=C(NCCCc1[nH]nc(-c2ccc(F)cc2)c1-c1ccncc1)Nc1cccc(F)c1 | 61% | 80% | – |
| COc1cc(OC)c(NC(=O)NCc2[nH]nc(-c3ccc(F)cc3)c2-c2ccncc2)cc1O | 14% | 4% | – |
| O=S(=O)(NCc1[nH]nc(-c2ccc(F)cc2)c1-c1ccncc1)c1ccc(OC(F)(F)F)cc1 | – | 42% | IC50 (MAPK14 (human) [2]): 3.63 µM |
| O=C(NCCc1[nH]nc(-c2ccc(F)cc2)c1-c1ccncc1)Nc1cccc(Cl)c1Cl | 31% | 68% | – |
| O=C(NCc1[nH]nc(-c2ccc(F)cc2)c1-c1ccncc1)C(F)(F)C(F)(F)C(F)(F)F | 54% | 96% | – |
| COc1ccc(Br)cc1S(=O)(=O)N[C@@H](C)c1[nH]nc(-c2ccc(F)cc2)c1-c1ccncc1 | 81% | – | IC50 (MAPK14 (human) [1]): 1.78 µM |
| CCCCS(=O)(=O)NCCc1[nH]nc(-c2ccc(F)cc2)c1-c1ccncc1 | 53% | 84% | – |
| COc1ccc(OC)c(NC(=O)NCc2[nH]nc(-c3ccc(F)cc3)c2-c2ccncc2)c1 | 40% | 39% | – |
| COc1ccc(S(=O)(=O)NCCc2[nH]nc(-c3ccc(F)cc3)c2-c2ccncc2)cc1 | 23% | 61% | – |
| COC(=O)c1ccccc1NC(=O)NCCc1[nH]nc(-c2ccc(F)cc2)c1-c1ccncc1 | 31% | 76% | – |
| O=S(=O)(NCCc1[nH]nc(-c2ccc(F)cc2)c1-c1ccncc1)c1ccc(Cl)c(Cl)c1 | 36% | – | IC50 (MAPK14 (human) [1]): 0.33 µM |
| CCCCOc1ccc(NC(=O)NCCc2[nH]nc(-c3ccc(F)cc3)c2-c2ccncc2)cc1 | 27% | 45% | – |
| O=S(=O)(NCCc1[nH]nc(-c2ccc(F)cc2)c1-c1ccncc1)c1cccs1 | 53% | 87% | – |
| CC1(C)[C@H]2CC[C@@]1(CCS(=O)(=O)NCc1[nH]nc(-c3ccc(F)cc3)c1-c1ccncc1)C(=O)C2 | 11% | – | IC50 (MAPK14 (human) [1]): < 0.1 µM |
| O=C(NCCc1[nH]nc(-c2ccc(F)cc2)c1-c1ccncc1)C1CCCC1 | 45% | 79% | – |
| O=C(NCCCc1[nH]nc(-c2ccc(F)cc2)c1-c1ccncc1)NCCc1ccc(F)cc1 | 9% | – | IC50 (MAPK14 (human) [1]): 0.019 µM |
| COc1ccc(NC(=O)N2CCC(c3[nH]nc(-c4ccc(F)cc4)c3-c3ccncc3)CC2)c(OC)c1 | – | – | IC50 (MAPK14 (human) [1]): < 0.1 µM; IC50 (MAPK14 (human) [2]): 0.44 µM |

| Compound | inhibition (MAPK14 (human) [2]; concentration not given here) | inhibition (MAPK14 (human) [1]) | also measured |
| --- | --- | --- | --- |
| O=S(=O)(NCCc1[nH]nc(-c2ccc(F)cc2)c1-c1ccncc1)c1ccc(F)cc1 | 7% | 85% | – |
| O=S(=O)(NCCCc1[nH]nc(-c2ccc(F)cc2)c1-c1ccncc1)C(F)(F)F | 68% | 74% | – |
| CC1(C)[C@@H]2CC[C@]1(CS(=O)(=O)NCCCc1[nH]nc(-c3ccc(F)cc3)c1-c1ccncc1)C(=O)C2 | 59% | – | IC50 (MAPK14 (human) [1]): < 0.1 µM |
| O=S(=O)(NCCc1[nH]nc(-c2ccc(F)cc2)c1-c1ccncc1)c1ccc(F)cc1F | 34% | 88% | – |
| C[C@@H](NC(=O)c1ccc(F)cc1)c1[nH]nc(-c2ccc(F)cc2)c1-c1ccncc1 | 24% | – | IC50 (MAPK14 (human) [1]): 0.66 µM |
| O=C(NCCc1[nH]nc(-c2ccc(F)cc2)c1-c1ccncc1)N[C@@H]1C[C@@H]1c1ccccc1 | 25% | 81% | – |
| O=S(=O)(NCc1[nH]nc(-c2ccc(F)cc2)c1-c1ccncc1)c1cc(Cl)c(Cl)s1 | – | 78% | IC50 (MAPK14 (human) [2]): 1.81 µM |
| CCC(C(=O)NCc1[nH]nc(-c2ccc(F)cc2)c1-c1ccncc1)c1ccccc1 (stereo unspecified) | 76% | 94% | – |
| O=C(NCCCc1[nH]nc(-c2ccc(F)cc2)c1-c1ccncc1)NCc1ccccc1 | – | 82% | – |
| O=C(NCCCc1[nH]nc(-c2ccc(F)cc2)c1-c1ccncc1)c1cccnc1 | – | 72% | – |
| COc1ccccc1C(=O)N1CCC(c2[nH]nc(-c3ccc(F)cc3)c2-c2ccncc2)CC1 | – | – | IC50 (MAPK14 (human) [1]): < 0.1 µM |
| O=C(NCCCc1[nH]nc(-c2ccc(F)cc2)c1-c1ccncc1)c1ccccn1 | – | 69% | – |
| O=C(N[C@H](Cc1ccccc1)c1[nH]nc(-c2ccc(F)cc2)c1-c1ccncc1)c1cnc2ccccc2n1 | – | – | IC50 (MAPK14 (human) [1]): 38.1 µM |
| O=C(NCCCc1[nH]nc(-c2ccc(F)cc2)c1-c1ccncc1)Nc1ccccc1F | – | 86% | – |
| COc1cccc(NC(=O)NCCc2[nH]nc(-c3ccc(F)cc3)c2-c2ccncc2)c1 | – | 68% | – |
| COc1cccc(CC(=O)NCCCc2[nH]nc(-c3ccc(F)cc3)c2-c2ccncc2)c1 | – | 92% | – |

Second part, led by results:

| inhibition (MAPK14 (human) [2]; concentration not given here) | inhibition (MAPK14 (human) [1]) | Compound | also measured |
| --- | --- | --- | --- |
| 18% | – | CN(C(=O)NCc1[nH]nc(-c2ccc(F)cc2)c1-c1ccncc1)c1ccccc1 | IC50 (MAPK14 (human) [1]): 0.53 µM |
| – | 85% | O=C(NCCCc1[nH]nc(-c2ccc(F)cc2)c1-c1ccncc1)[C@@H]1CCCN1 | IC100 (MAPK14 (human) [2]): 0.36 µM |
| 19% | 79% | Cc1c(-c2ccncc2)c(-c2ccc(F)cc2)nn1CC(=O)[C@H]1CCCN1C(=O)OCc1ccccc1 | – |
| 27% | 70% | CCOC(=O)CNC(=O)NCc1[nH]nc(-c2ccc(F)cc2)c1-c1ccncc1 | – |
| 1% | 44% | COC(=O)C(C)NC(=O)Cn1nc(-c2ccc(F)cc2)c(-c2ccncc2)c1C (stereo unspecified) | – |
| 57% | 62% | CC(=O)OCC(=O)NCCc1[nH]nc(-c2ccc(F)cc2)c1-c1ccncc1 | – |
| 36% | 58% | Cc1c(-c2ccncc2)c(-c2ccc(F)cc2)nn1CC(=O)NC1CCCC1 | – |
| 37% | 76% | O=C(NCCc1[nH]nc(-c2ccc(F)cc2)c1-c1ccncc1)N1CCCC1 | – |
| 46% | 83% | Cc1c(-c2ccncc2)c(-c2ccc(F)cc2)nn1CC(=O)N[C@@H](C)c1ccccc1 | – |
| – | 62% | Cc1c(-c2ccncc2)c(-c2ccc(F)cc2)nn1CC(=O)N(C)CCN(C)C | IC50 (MAPK14 (human) [2]): > 10 µM |
| 43% | 55% | COCC(=O)NCCc1[nH]nc(-c2ccc(F)cc2)c1-c1ccncc1 | – |
| 28% | 90% | Cc1c(-c2ccncc2)c(-c2ccc(F)cc2)nn1CC(=O)Nc1ccc(S(=O)(=O)C(F)F)cc1 | – |
| 19% | 67% | CCN(CC)C(=O)NCCc1[nH]nc(-c2ccc(F)cc2)c1-c1ccncc1 | – |
| 6% | 50% | C=CCN(C(=O)Cn1nc(-c2ccc(F)cc2)c(-c2ccncc2)c1C)C1CCCCC1 | – |
| 54% | 69% | CCOC(=O)C(CCSC)NC(=O)NCCc1[nH]nc(-c2ccc(F)cc2)c1-c1ccncc1 (stereo unspecified) | – |
| 34% | 52% | O=C(NCCc1[nH]nc(-c2ccc(F)cc2)c1-c1ccncc1)c1ccccn1 | – |
| – | 85% | Cc1ccc(NC(=O)Cn2nc(-c3ccc(F)cc3)c(-c3ccncc3)c2C)cc1 | IC50 (MAPK14 (human) [2]): > 10 µM |
| 23% | 54% | COc1cccc(C(=O)NCCc2[nH]nc(-c3ccc(F)cc3)c2-c2ccncc2)c1 | – |
| 46% | – | CNC(=O)CC[C@H](NC(C)=O)c1[nH]nc(-c2ccc(F)cc2)c1-c1ccncc1 | IC50 (MAPK14 (human) [1]): 0.66 µM |
| – | 40% | CCN(CC)C1CCN(C(=O)Cn2nc(-c3ccc(F)cc3)c(-c3ccncc3)c2C)C1 (stereo unspecified) | inhibition (MAPK14 (human) [2]): 59 µM |
| – | 47% | Cc1cc(Cl)ccc1OCC1SCCN1C(=O)Cn1nc(-c2ccc(F)cc2)c(-c2ccncc2)c1C (stereo unspecified) | IC50 (MAPK14 (human) [2]): > 10 µM |
| 36% | 83% | CCOC(=O)COc1cccc(NC(=O)Cn2nc(-c3ccc(F)cc3)c(-c3ccncc3)c2C)c1 | – |
| 34% | 77% | CC(C)S(=O)(=O)NCCc1[nH]nc(-c2ccc(F)cc2)c1-c1ccncc1 | – |

| inhibition (MAPK14 (human) [2]; concentration not given here) | inhibition (MAPK14 (human) [1]) | Compound | also measured |
| --- | --- | --- | --- |
| – | 97% | C=CCOC(=O)NCc1[nH]nc(-c2ccc(F)cc2)c1-c1ccncc1 | IC50 (MAPK14 (human) [2]): 10 µM |
| 25% | 63% | CCOC(=O)C(C)NC(=O)NCCc1[nH]nc(-c2ccc(F)cc2)c1-c1ccncc1 (stereo unspecified) | – |
| 25% | 67% | CC(C)=CC(=O)NCCc1[nH]nc(-c2ccc(F)cc2)c1-c1ccncc1 | – |
| 34% | 69% | CCOC(=O)CCNC(=O)NCCc1[nH]nc(-c2ccc(F)cc2)c1-c1ccncc1 | – |
| – | 76% | COC(=O)[C@H](COCc1ccccc1)NC(=O)Cn1nc(-c2ccc(F)cc2)c(-c2ccncc2)c1C | – |
| – | 32% | Cc1c(-c2ccncc2)c(-c2ccc(F)cc2)nn1CC(=O)N(C)CCc1ccccc1 | – |
| – | 84% | Cc1c(-c2ccncc2)c(-c2ccc(F)cc2)nn1CC(=O)NC1CCN(CCc2c[nH]c3ccccc23)CC1 | – |
| – | 37% | CCOC(=O)C[C@H](NC(=O)Cn1nc(-c2ccc(F)cc2)c(-c2ccncc2)c1C)C(=O)OCC | – |
| – | 86% | Cc1c(-c2ccncc2)c(-c2ccc(F)cc2)nn1CC(=O)Nc1ccccc1Oc1ccc(Cl)cc1 | – |
| – | 78% | CCCOC(=O)NCCc1[nH]nc(-c2ccc(F)cc2)c1-c1ccncc1 | – |
| – | 65% | CCN1CCN(C(=O)Cn2nc(-c3ccc(F)cc3)c(-c3ccncc3)c2C)CC1 | – |
| – | 86% | Cc1c(-c2ccncc2)c(-c2ccc(F)cc2)nn1CC(=O)Nc1ccccc1C(=O)NC(C)c1ccccc1 (stereo unspecified) | – |
| – | 82% | Cc1c(-c2ccncc2)c(-c2ccc(F)cc2)nn1CC(=O)Nc1ccc(OCc2ccccc2)cc1 | – |
| – | 85% | COc1ccc(OC)c(NC(=O)Cn2nc(-c3ccc(F)cc3)c(-c3ccncc3)c2C)c1 | – |
| – | 81% | O=C(NCCCc1[nH]nc(-c2ccc(F)cc2)c1-c1ccncc1)[C@H]1CCCN1 | – |
| – | 82% | Cc1c(-c2ccncc2)c(-c2ccc(F)cc2)nn1CC(=O)Nc1cccc(SC(F)(F)F)c1 | – |
| – | 35% | COCCN(C)C(=O)Cn1nc(-c2ccc(F)cc2)c(-c2ccncc2)c1C | – |
| – | 78% | COCC(=O)NCCCc1[nH]nc(-c2ccc(F)cc2)c1-c1ccncc1 | – |
| – | 74% | Cc1c(-c2ccncc2)c(-c2ccc(F)cc2)nn1CC(=O)N[C@@H](C)c1cccc2ccccc12 | – |
| – | 46% | CCN(Cc1c(F)cccc1Cl)C(=O)Cn1nc(-c2ccc(F)cc2)c(-c2ccncc2)c1C | – |
| – | 73% | Cc1c(-c2ccncc2)c(-c2ccc(F)cc2)nn1CC(=O)NC1CCN(Cc2ccccc2)C1 (stereo unspecified) | – |
| – | 71% | Cc1c(-c2ccncc2)c(-c2ccc(F)cc2)nn1CC(=O)NC(C)c1ccc(Br)cc1 (stereo unspecified) | – |
| – | 80% | Cc1c(-c2ccncc2)c(-c2ccc(F)cc2)nn1CC(=O)Nc1ccccc1SCCCc1ccccc1 | – |
